Source: article PMC5965259 (Journal of medicinal chemistry, 2018)

Test system: bloodstream form T. brucei Lister 427
Assay: ATP–bioluminescence-based bloodstream form T. brucei cell viability assay
Conditions: Trypanosoma brucei, 48 h, read-out: Tb427 EC50

Going from `Cc1cc(Nc2cc(Cl)cc(-c3ccc(C(F)(F)F)cc3)c2)nc(N)n1` [Compound 95, N^4-(5-Chloro-4′-(trifluoromethyl)-[1,1′-biphenyl]-3-yl)-6-methylpyrimidine-2,4-diamine] to `Cc1cc(Nc2cc(Cl)cc(-c3ccc(O)cc3)c2)nc(N)n1` [Compound 98, 3′-((2-Amino-6-methylpyrimidin-4-yl)amino)-5′-chloro-[1,1′-biphenyl]-4-ol], the EC50 rises from 2 µM to 9.7 µM (4.8-fold).

First: Cc1cc(Nc2ccc(-c3cc(Cl)cc(Cl)c3)cc2)nc(N)n1 [Compound 89, N^4-(3′,5′-Dichloro-[1,1′-biphenyl]-4-yl)-6-methylpyrimidine-2,4-diamine]
Second: Cc1cc(Nc2cc(Cl)cc(-c3ccc(Cl)cc3)c2)nc(N)n1 [Compound 92, N^4-(4′,5-Dichloro-[1,1′-biphenyl]-3-yl)-6-methylpyrimidine-2,4-diamine]
The EC50 of the first is 2.2-fold lower: 1 µM for the first, 2.2 µM for the second. The first is the more potent here.

Going from `Cc1cc(Nc2cccc(F)c2)nc(N)n1` [Compound 57] to `Cc1cc(Nc2cccc(Br)c2)nc(N)n1` [Compound 56], the EC50 falls from greater than 25 µM to 22 µM.

`Cc1cc(Nc2cc(Cl)cc(-c3cc4ccccc4s3)c2)nc(N)n1` [Compound 114, N^4-(3-(Benzo[b]thiophen-2-yl)-5-chlorophenyl)-6-methylpyrimidine-2,4-diamine] and `Cc1cc(Nc2cc(Cl)cc(-c3cccc(Cl)c3)c2)nc(N)n1` [Compound 102, N^4-(3′,5-Dichloro-[1,1′-biphenyl]-3-yl)-6-methylpyrimidine-2,4-diamine] are within 1.5-fold of each other in EC50: 1.6 µM for the first, 1.9 µM for the second.

First: Cc1cc(Nc2cc(Cl)cc(-c3ccoc3)c2)nc(N)n1 [Compound 111, N^4-(3-Chloro-5-(furan-3-yl)phenyl)-6-methylpyrimidine-2,4-diamine]
Second: Cc1cc(Nc2cc(Cl)cc(-c3ccsc3)c2)nc(N)n1 [Compound 113, N^4-(3-Chloro-5-(thiophen-3-yl)phenyl)-6-methylpyrimidine-2,4-diamine]
The EC50 of the first is 4.1-fold lower: 7.1 µM for the first, 29 µM for the second. The first is the more potent here.

Going from `Cc1cc(Nc2cc(Cl)cc(-c3ccc(-c4ccccc4)cc3)c2)nc(N)n1` [Compound 99, N^4-(5-Chloro-[1,1′:4′,1″-terphenyl]-3-yl)-6-methylpyrimidine-2,4-diamine] to `Cc1cc(Nc2cc(-c3ccccc3)cc(-c3ccccc3)c2)nc(N)n1` [Compound 50, N^4-([1,1′:3′,1″-Terphenyl]-5′-yl)-6-methylpyrimidine-2,4-diamine], the EC50 rises from 0.91 µM to 1.5 µM (1.6-fold). The first is the more potent here.

Compared with `Cc1cc(Nc2cc(C(=O)O)cc(C(=O)O)c2)nc(N)n1` [Compound 48, 5-((2-Amino-6-methylpyrimidin-4-yl)amino)isophthalic acid], `COC(=O)c1cc(Nc2cc(C)nc(N)n2)cc(C(=O)OC)c1` [Compound 49, Dimethyl 5-((2-amino-6-methylpyrimidin-4-yl)amino)isophthalate] is lower in EC50: greater than 100 µM for the first, 42 µM for the second.

Going from `CCc1cc(Nc2cc(Cl)cc(Cl)c2)nc(N)n1` [Compound 9] to `Nc1cc(Nc2cc(Cl)cc(Cl)c2)nc(N)n1` [Compound 26, N^4-(3,5-Dichlorophenyl)pyrimidine-2,4,6-triamine], the EC50 rises from 4.7 µM to 14 µM (3-fold).

`Cc1cc(Nc2ccccc2Br)nc(N)n1` [Compound 79] and `Cc1cc(Nc2ccccc2C)nc(N)n1` [Compound 77] cannot be ordered by EC50: greater than 25 µM for the first, greater than 25 µM for the second.

Compared with `CCc1cc(Nc2cc(C)nc(N)n2)cc(-c2ccc(F)cc2)c1` [Compound 118, N^4-(5-Ethyl-4′-fluoro-[1,1′-biphenyl]-3-yl)-6-methylpyrimidine-2,4-diamine], `COc1ccc(-c2cc(Cl)cc(Nc3cc(C)nc(N)n3)c2)cc1` [Compound 93, N^4-(5-Chloro-4′-methoxy-[1,1′-biphenyl]-3-yl)-6-methylpyrimidine-2,4-diamine] is 3.5-fold higher in EC50: 1.3 µM for the first, 4.5 µM for the second. The first is the more potent here.

`CCOc1cc(Br)cc(Nc2cc(C)nc(N)n2)c1` [Compound 39, N^4-(3-Bromo-5-ethoxyphenyl)-6-methylpyrimidine-2,4-diamine] and `C=CCOc1cc(Br)cc(Nc2cc(C)nc(N)n2)c1` [Compound 41, N^4-(3-(Allyloxy)-5-bromophenyl)-6-methylpyrimidine-2,4-diamine] are the same in EC50: 4.4 µM for the first, 4.4 µM for the second.

`CSc1ccccc1Nc1cc(C)nc(N)n1` [Compound 78] and `Cc1cc(Nc2ccccc2)nc(N)n1` [Compound 59] cannot be ordered by EC50: greater than 25 µM for the first, greater than 25 µM for the second.

Compared with `Cc1cc(Nc2ccc(C(C)C)cc2)nc(N)n1` [Compound 87], `CCc1ccc(Nc2cc(C)nc(N)n2)cc1` [Compound 86] is 1.7-fold higher in EC50: 11 µM for the first, 19 µM for the second. The first is the more potent here.

`Cc1cc(N(C)c2cc(Cl)cc(Cl)c2)nc(N)n1` [Compound 28, N^4-(3,5-Dichlorophenyl)-N^4,6-dimethylpyrimidine-2,4-diamine] and `Cc1cc(Sc2cc(Cl)cc(Cl)c2)nc(N)n1` [Compound 29, 4-((3,5-Dichlorophenyl)thio)-6-methylpyrimidin-2-amine] cannot be ordered by EC50: 38 µM for the first, greater than 25 µM for the second.

First: Cc1cc(Nc2cc(Cl)c(N(C)C)c(Cl)c2)nc(N)n1 [Compound 69, N^4-(3,5-Dichloro-4-(dimethylamino)phenyl)-6-methylpyrimidine-2,4-diamine]
Second: Cc1cc(Nc2cc(Cl)c(O)c(Cl)c2)nc(N)n1 [Compound 67, 4-((2-Amino-6-methylpyrimidin-4-yl)amino)-2,6-dichlorophenol]
The EC50 of the first is 2.2-fold lower: 5.8 µM for the first, 13 µM for the second.

Compared with `Nc1nc2c(c(Nc3cc(Cl)cc(Cl)c3)n1)CCC2` [Compound 15], `CC(C)c1cc(Nc2cc(Cl)cc(Cl)c2)nc(N)n1` [Compound 10] is 4-fold lower in EC50: 19 µM for the first, 4.7 µM for the second. The second is the more potent here.

First: COc1cc(Nc2cc(C)nc(N)n2)cc(OC)c1 [Compound 47, N^4-(3,5-Dimethoxyphenyl)-6-methylpyrimidine-2,4-diamine]
Second: Cc1cc(C)cc(Nc2cc(C)nc(N)n2)c1 [Compound 52, N^4-(3,5-Dimethylphenyl)-6-methylpyrimidine-2,4-diamine]
The EC50 of the first is 2.2-fold higher: 41 µM for the first, 19 µM for the second.

`Nc1nc(Nc2cc(Cl)cc(Cl)c2)cc(C(F)(F)F)n1` [Compound 14] and `Cc1cc(Nc2cc(Cl)cc(C(F)(F)F)c2)nc(N)n1` [Compound 34, N^4-(3-Chloro-5-(trifluoromethyl)phenyl)-6-methylpyrimidine-2,4-diamine] are within 1.5-fold of each other in EC50: 10 µM for the first, 13 µM for the second.

`CCc1cc(Br)cc(Nc2cc(C)nc(N)n2)c1` [Compound 38, N^4-(3-Bromo-5-ethylphenyl)-6-methylpyrimidine-2,4-diamine] and `Cc1cc(Nc2cc(Br)cc(OCC(F)(F)F)c2)nc(N)n1` [Compound 40, N^4-(3-Bromo-5-(2,2,2-trifluoroethoxy)phenyl)-6-methylpyrimidine-2,4-diamine] are within 1.5-fold of each other in EC50: 5.5 µM for the first, 4.2 µM for the second.

Going from `Cc1cc(Nc2ccc(Cl)cc2C)nc(N)n1` [Compound 82] to `Cc1cc(NCc2cc(Cl)cc(Cl)c2)nc(N)n1` [Compound 30, N^4-(3,5-Dichlorobenzyl)-6-methylpyrimidine-2,4-diamine], the EC50 falls from greater than 25 µM to 11 µM. The second is the more potent here.

First: Cc1cc(Nc2cc(Cl)c(Oc3ccccc3)c(Cl)c2)nc(N)n1 [Compound 66, N^4-(3,5-Dichloro-4-phenoxyphenyl)-6-methylpyrimidine-2,4-diamine]
Second: Cc1cc(Nc2cc(Cl)cc(-c3ccc(Cl)c(Cl)c3)c2)nc(N)n1 [Compound 103, 6-Methyl-N^4-(3′,4′,5-trichloro-[1,1′-biphenyl]-3-yl)pyrimidine-2,4-diamine]
The EC50 of the first is 2.6-fold lower: 1.1 µM for the first, 2.9 µM for the second.

`Cc1cc(Nc2cc(Cl)cc(-c3cc4ccccc4c4ccccc34)c2)nc(N)n1` [Compound 108, N^4-(3-Chloro-5-(phenanthren-9-yl)phenyl)-6-methylpyrimidine-2,4-diamine] and `Cc1cc(Nc2cc(Cl)cc(-c3ccc4c(c3)OCO4)c2)nc(N)n1` [Compound 109, N^4-(3-(Benzo[d][1,3]dioxol-5-yl)-5-chlorophenyl)-6-methylpyrimidine-2,4-diamine] are within 1.5-fold of each other in EC50: 1.8 µM for the first, 2.3 µM for the second.

Compared with `Cc1cc(Nc2cc(Br)c(F)c(Br)c2)nc(N)n1` [Compound 63, N^4-(3,5-Dibromo-4-fluorophenyl)-6-methylpyrimidine-2,4-diamine], `Cc1cc(Nc2cc(Br)cc(S(F)(F)(F)(F)F)c2)nc(N)n1` [Compound 37, N^4-(3-Bromo-5-(pentafluoro-λ^6-sulfaneyl)phenyl)-6-methylpyrimidine-2,4-diamine] is 10-fold lower in EC50: 4.6 µM for the first, 0.45 µM for the second.

First: Cc1cc(Nc2cc(S(C)(=O)=O)cc(S(C)(=O)=O)c2)nc(N)n1 [Compound 45, N^4-(3,5-Bis(methylsulfonyl)phenyl)-6-methylpyrimidine-2,4-diamine]
Second: Cc1cc(Nc2cc(C(C)(C)C)cc(C(C)(C)C)c2)nc(N)n1 [Compound 53, N^4-(3,5-Di-tert-butylphenyl)-6-methylpyrimidine-2,4-diamine]
The EC50 of the first is higher: greater than 100 µM for the first, 4.1 µM for the second.

First: Cc1cc(Nc2cc(Cl)cc(-c3cnn(C)c3)c2)nc(N)n1 [Compound 116, N^4-(3-Chloro-5-(1-methyl-1H-pyrazol-4-yl)phenyl)-6-methylpyrimidine-2,4-diamine]
Second: Cc1cc(Nc2cc(Cl)cc(-c3cc(C(F)(F)F)cc(C(F)(F)F)c3)c2)nc(N)n1 [Compound 106, N^4-(5-Chloro-3′,5′-bis(trifluoromethyl)-[1,1′-biphenyl]-3-yl)-6-methylpyrimidine-2,4-diamine]
The EC50 of the first is 13-fold higher: 6.7 µM for the first, 0.53 µM for the second.

First: Cc1cc(N)cc(Nc2cc(Cl)cc(Cl)c2)n1 [Compound 19, N^2-(3,5-Dichlorophenyl)-6-methylpyridine-2,4-diamine]
Second: Cc1cc(Nc2cc(Cl)cc(Cl)c2)cc(N)n1 [Compound 20, N^4-(3,5-Dichlorophenyl)-6-methylpyridine-2,4-diamine]
The EC50 of the first is 5.9-fold higher: 13 µM for the first, 2.2 µM for the second. The second is the more potent here.

`Cc1cc(NCCc2cc(Cl)cc(Cl)c2)nc(N)n1` [Compound 31, N^4-(3,5-Dichlorophenethyl)-6-methylpyrimidine-2,4-diamine] and `Nc1nc(Nc2cc(Cl)cc(Cl)c2)cc(-c2ccccc2)n1` [Compound 11] are within 1.5-fold of each other in EC50: 5.7 µM for the first, 7.2 µM for the second.

Compared with `Nc1cccc(Nc2cc(Cl)cc(Cl)c2)n1` [Compound 17], `Cc1cc(Nc2ccc(C(F)(F)F)cc2)nc(N)n1` [Compound 88] is 6.4-fold lower in EC50: 96 µM for the first, 15 µM for the second.

`Cc1cc(Nc2cc(Cl)c(N3CCCCC3)c(Cl)c2)nc(N)n1` [Compound 71, N^4-(3,5-Dichloro-4-(piperidin-1-yl)phenyl)-6-methylpyrimidine-2,4-diamine] and `Cc1cc(Nc2cc(C(=O)Nc3cc(Cl)cc(Cl)c3)cc(C(=O)Nc3cc(Cl)cc(Cl)c3)c2)nc(N)n1` [Compound 51, 5-((2-Amino-6-methylpyrimidin-4-yl)amino)-N^1,N^3-bis(3,5-dichlorophenyl)isophthalamide] are within 1.5-fold of each other in EC50: 2.1 µM for the first, 2 µM for the second.
